Experimental data reported in patent US10858360B2, “Tricyclic gyrase inhibitors” (priority 2011, dated 2020).
Converted amounts (≈) assume the structure as drawn. Where two headings read alike, the source gives them in different places.

Experiments:
[1] = tested on: S. aureus ATCC 13709; test: MIC, S. aureus ATCC 13709 (Alamar Blue broth microdilution); assay type: cell-based; conditions: for MIC: Staphylococcus aureus, ATCC13709, S. aureus
[2] = tested on: E. coli ATCC 25922; test: MIC, E. coli ATCC 25922; assay type: cell-based; conditions: for MIC: Escherichia coli, ATCC25922, E. coli
[3] = Alamar Blue read after overnight incubation at 35° C.
[4] = S. aureus, Alamar Blue read after overnight incubation at 35° C.
[5] = E. coli, Alamar Blue read after overnight incubation at 35° C.

In the case of `CNc1cccc2c1[nH]c1nc(Sc3cnc4cccnc4c3)nc(N3CC4CCCNC4C3)c12` (stereo not shown) [1.28], the MIC [1, 3] is reported as 4 µg/mL (≈ 8.29 µM) and the MIC [2, 3] is reported as 16 µg/mL (≈ 33.2 µM).

`CNc1cc(F)cc2c1[nH]c1nc(Oc3cnc(C)nc3)nc(-c3cncnc3)c12` [4.449] gave an MIC [1, 3] of at most 0.5 µg/mL and an MIC [2, 3] of over 16 µg/mL.

In the case of `CNc1cc(F)cc2c1[nH]c1nc(Oc3cnc(C)nc3)nc(NC3CCCC[C@@H]3N)c12` (stereo partly shown) [4.109], the “MIC Sa” value [1, 4] is reported as at most 0.5 µg/mL and the “MIC Ec” value [2, 5] is reported as 1 µg/mL (≈ 2.29 µM).

In the case of `CNc1cc(F)cc2c1[nH]c1nc(Oc3cnc(C)nc3)nc(N3CC(N)C(F)C3)c12` (stereo not shown) [4.137], the “MIC Sa” value [1, 4] is reported as at most 0.5 µg/mL and the “MIC Ec” value [2, 5] is reported as 1 µg/mL (≈ 2.35 µM).

With `CNc1cc(F)cc2c1[nH]c1nc(Oc3cnc(SC)nc3)nc(N3CCC(N)C3)c12` (stereo not shown) [4.199] the “MIC Sa” value [1, 4] was at most 0.5 µg/mL and the “MIC Ec” value [2, 5] was at most 0.5 µg/mL.

With `CNc1cccc2c1[nH]c1nc(Oc3cnc4c(c3)ncn4C)nc(N3CC4C(N)C4C3)c12` (stereo not shown) [3.36] the MIC [1, 3] was at most 0.5 µg/mL and the MIC [2, 3] was 2 µg/mL (≈ 4.53 µM).

In the case of `CNc1cc(F)cc2c1[nH]c1nc(Oc3cnc(N4CCCC4=O)nc3)nc(N3CC4C(N)C4C3)c12` (stereo not shown) [4.345], the MIC [1, 3] is reported as at most 0.5 µg/mL and the MIC [2, 3] is reported as 2 µg/mL (≈ 4.09 µM).

`CNc1cc(F)cc2c1[nH]c1nc(Oc3cnc(N4CCOCC4)nc3)nc(N3CCC4(CC4N)C3)c12` (stereo not shown) [4.214] was tested, and the MIC [1, 3] was at most 0.5 µg/mL and the MIC [2, 3] was 2 µg/mL (≈ 3.96 µM).

`CNc1cc(F)cc2c1[nH]c1nc(Oc3cnc(SC)nc3)nc(N3CC4C(CN)C4C3)c12` (stereo not shown) [4.197] was tested, and the “MIC Sa” value [1, 4] was at most 0.5 µg/mL and the “MIC Ec” value [2, 5] was at most 0.5 µg/mL.

With `CNc1cccc2c1[nH]c1nc(Oc3cncc(C#N)c3)nc(N3CC[C@@H](N)C3)c12` [3.3] the MIC [1, 3] was 0.5 µg/mL (≈ 1.25 µM) and the MIC [2, 3] was 1 µg/mL (≈ 2.5 µM).

For `CNc1cc(F)cc2c1[nH]c1nc(Oc3cnc(N4CC(S(=O)(=O)CC5CC5)C4)nc3)nc(N3CC4C(N)C4C3)c12` (stereo not shown) [4.337], the “MIC Sa” value [1, 4] was at most 0.5 µg/mL and the “MIC Ec” value [2, 5] was 1 µg/mL (≈ 1.73 µM).

For `CNc1cc(F)cc2c1[nH]c1nc(Oc3ccc(C#N)nc3)nc(N3CC4CC(N)C4C3)c12` (stereo not shown) [4.332], the “MIC Sa” value [1, 4] was at most 0.5 µg/mL and the “MIC Ec” value [2, 5] was at most 0.5 µg/mL.

With `CNc1cc(F)cc2c1[nH]c1nc(Oc3cncc(F)c3)nc(N3CC4(CCC4N)C3)c12` (stereo not shown) [4.061] the “MIC Sa” value [1, 4] was at most 0.5 µg/mL and the “MIC Ec” value [2, 5] was at most 0.5 µg/mL.

For `CCc1cc(F)cc2c1[nH]c1nc(Oc3cncnc3)nc(N3CC4CC(N)C4C3)c12` (stereo not shown) [2.5], the “MIC Sa” value [1, 4] was at most 0.5 µg/mL and the “MIC Ec” value [2, 5] was 2 µg/mL (≈ 4.77 µM).

With `CNc1cc(F)cc2c1[nH]c1nc(Oc3cnc4ccoc4c3)nc(N3CC(N)C4(CC4)C3)c12` (stereo not shown) [4.292] the “MIC Sa” value [1, 4] was at most 0.5 µg/mL and the “MIC Ec” value [2, 5] was at most 0.5 µg/mL.

`CNc1cc(F)cc2c1[nH]c1nc(Oc3cnc(C)nc3)nc(N3CC4CCC(CN)C4C3)c12` (stereo not shown) [4.112] was tested, and the “MIC Sa” value [1, 4] was at most 0.5 µg/mL and the “MIC Ec” value [2, 5] was 1 µg/mL (≈ 2.16 µM).

In the case of `CNc1cc(F)cc2c1[nH]c1nc(Oc3cnc(CN)nc3)nc(N3CC4CC3CC4N)c12` (stereo not shown) [4.393], the “MIC Sa” value [1, 4] is reported as at most 0.5 µg/mL and the “MIC Ec” value [2, 5] is reported as 1 µg/mL (≈ 2.22 µM).

`CNc1cc(F)cc2c1[nH]c1nc(Oc3cnc4[nH]cnc4c3)nc(N3CC4C(N)C4C3)c12` (stereo not shown) [4.311] showed an MIC [1, 3] of 4 µg/mL (≈ 8.98 µM) and an MIC [2, 3] of over 16 µg/mL.

Molecule `CNc1cc(F)cc2c1[nH]c1nc(Oc3cnc(C)nc3)nc(N3CC[C@@H](N)C3)c12` [4.070] has an MIC [1, 3] of at most 0.5 µg/mL and an MIC [2, 3] of 1 µg/mL (≈ 2.45 µM).

`CCc1ncc(Oc2nc(N3CCC4(CC4N)C3)c3c(n2)[nH]c2c(NC)cc(F)cc23)cn1` (stereo not shown) [4.263] was tested, and the MIC [1, 3] was at most 0.5 µg/mL and the MIC [2, 3] was at most 0.5 µg/mL.

`CCc1cc(F)cc2c1[nH]c1nc(Oc3cnc(C)nc3)nc(N3CC(N)C4(CC4)C3)c12` (stereo not shown) [2.3] showed an MIC [1, 3] of 1 µg/mL (≈ 2.31 µM) and an MIC [2, 3] of 16 µg/mL (≈ 36.9 µM).

Molecule `CNc1cc(F)cc2c1[nH]c1nc(Oc3cnc(NC4CC4)nc3)nc(N3CC4C(N)C4C3)c12` (stereo not shown) [4.223] has an MIC [1, 3] of at most 0.5 µg/mL and an MIC [2, 3] of at most 0.5 µg/mL.

`CNc1cc(F)cc2c1[nH]c1nc(Oc3cnc(C)nc3)nc(N3CC4CC4(CN)C3)c12` (stereo not shown) [4.098] was tested, and the “MIC Sa” value [1, 4] was at most 0.5 µg/mL and the “MIC Ec” value [2, 5] was 1 µg/mL (≈ 2.3 µM).

Molecule `CNc1cc(F)cc2c1[nH]c1nc(Oc3cnc4[nH]cnc4c3)nc(N3CC4CC(N)C4C3)c12` (stereo not shown) [4.310] has an MIC [1, 3] of 8 µg/mL (≈ 17.4 µM) and an MIC [2, 3] of over 16 µg/mL.

For `CNc1cc(F)cc2c1[nH]c1nc(Oc3cncc(F)c3)nc(N3CC4CNC(C4)C3)c12` (stereo not shown) [4.058], the MIC [1, 3] was at most 0.5 µg/mL and the MIC [2, 3] was at most 0.5 µg/mL.

In the case of `CNc1cccc2c1[nH]c1nc(Oc3cncnc3)nc(N3C[C@H](NCC4CC4)C4(CC4)C3)c12` [3.12], the MIC [1, 3] is reported as 1 µg/mL (≈ 2.19 µM) and the MIC [2, 3] is reported as 8 µg/mL (≈ 17.5 µM).

With `CNc1cccc2c1[nH]c1nc(Sc3cnc4ccc[n+]([O-])c4c3)nc(N3CC[C@@H](C)[C@@H](N)C3)c12` [1.35] the MIC [1, 3] was at most 0.5 µg/mL and the MIC [2, 3] was 2 µg/mL (≈ 4.11 µM).

With `CNc1cc(F)cc2c1[nH]c1nc(Oc3cnc(Cl)nc3)nc(N3CC4C(N)CC4(C)C3)c12` (stereo not shown) [4.379] the “MIC Sa” value [1, 4] was at most 0.5 µg/mL and the “MIC Ec” value [2, 5] was at most 0.5 µg/mL.

`CNc1cc(F)cc2c1[nH]c1nc(Oc3cccnc3)nc(N3CC4CC(N)C4C3)c12` (stereo not shown) [4.348] was tested, and the “MIC Sa” value [1, 4] was at most 0.5 µg/mL and the “MIC Ec” value [2, 5] was at most 0.5 µg/mL.

With `CCc1cc(F)cc2c1[nH]c1nc(Oc3cnc(C)nc3)nc(N3CC4CC(N)C4C3)c12` (stereo not shown) [2.4] the MIC [1, 3] was at most 0.5 µg/mL and the MIC [2, 3] was 1 µg/mL (≈ 2.31 µM).

`CNc1cc(Cl)cc2c1[nH]c1nc(Oc3cncnc3)nc(N3CC4(CC4N)C3)c12` (stereo not shown) [6.12] was tested, and the “MIC Sa” value [1] was at most 0.5 µg/mL and the “MIC Ec” value [2] was at most 0.5 µg/mL.

In the case of `COc1cccc2c1[nH]c1nc(Oc3cncnc3)nc(N3CC4C(N)C4C3)c12` (stereo not shown) [2.13], the “MIC Sa” value [1, 4] is reported as 2 µg/mL (≈ 5.14 µM) and the “MIC Ec” value [2, 5] is reported as 64 µg/mL (≈ 164 µM).
